In patent US20130261058A1, “ACCELERATION OF WOUND HEALING BY GROWTH HORMONE RELEASING HORMONE AND ITS AGONISTS” (University of Miami, priority 2010, published 2013):
Entries after “also recorded” stand apart in the source; their conditions may differ.

How the values were obtained:
MEFs [1] = test: Transwell-based migration assay (8 μm pore) of MEFs; format: cell-based, mouse; details: for increase of migration through 8 μm-pore transwells compared to controls / stimulation of cell migration through transwells compared to controls: 5 days exposure; for increase of migration through 8 μm-pore transwells compared to controls: p<0.05; for stimulation of cell migration through transwells compared to controls: not significant
Experimental: (§1) The rate of cell proliferation was evaluated by the Trypan blue exclusion assay under inverted microscope. Cell migration was performed by the “scratch” assay as described, exposing cells to the peptides for 18 h (33). For the transwell-based migration assay, MEFs were seeded on 8 μm pore size transwells (Corning) and after 5 days exposure to the peptides at the indicated concentration, cell number was evaluated in the bottom compartment. All in vitro experiments were performed in triplicate and similar results were obtained.
(§2) Subsequently MEFs were subjected to scratch wound migration assays in vitro, following exposure to GHRH and 31-38 at 100 nM. […] A considerable, notwithstanding not significant, stimulation of cell migration, by about 2-fold as compared to the controls, was also evidenced at 500 nM GHRH or 31-38. In order to rule out the possibility that the results of these two migration assays were simply due to the increased proliferation, MEFs were exposed to the peptide analogs and cell proliferation was evaluated.

[2] = test system: α-smooth muscle actin (αSMA); test: Immunoblot analysis of αSMA expression in MEFs; format: cell-based, mouse
Experimental: (§3) hGHRH(1-29)NH2 was obtained from Sigma. Agonist JI-38 was synthesized as reported (24, 26). The peptides were dissolved in phosphate buffered saline (PBS) at the indicated concentrations. Controls contained solvent alone. Fibroblasts were isolated using standard methods and maintained in Dulbecco's Modified Eagle Medium containing 10% FBS and antibiotics/antimycotics. For all experiments, primary fibroblasts of less than 10 passages old were used. For Western blot analysis, antibodies for αSMA, FAK and actin were obtained from Sigma while for SV1; the antibody 2317/5 was used (35). The same antibody was also used for the immunohistochemistry as previously described (36). Histology was performed on standard 5 μm sections of paraffin embedded material stained with hematoxylin/eosin. βGal-staining was performed in lung fibroblasts, isolated from transgenic mice bearing an αSMA-beta galactosidase reporter transgene. After treatment with the peptides for 24 hours, cells were washed (three times each for 5 min) with 0.1M PBS (pH 7.4), and fixed with 0.05% glutaraldehyde in PBS, for 10 min at room temperature. After three more washes, cells were stained with 1 mg/ml of 5-bromo-4-chloro-3indonyl β-D-galactopyranoside, 5 mM potassium ferrocyanide, 5 mM potassium ferricyanide and 2 mM MgCl2) overnight at 37° C.
αSMA is an actin isoform that confers tensional and contractile activity (25,26). Typically SMA is selectively expressed in smooth muscle cells of adult animals, but is induced in activated fibroblasts (myofibroblasts) during wound healing, within the stroma of many tumors, and in general under conditions where there is extensive tissue reorganization and regeneration (27,28). […] Of interest, this effect was significant at a concentration of 100 nM but not 500 nM of either peptide. A similar pattern of expression was found for focal adhesion kinase (FAK), an enzyme which plays a role in cell migration and invasion (29). The activation of αSMA in fibroblasts following GHRH treatment was confirmed in lung fibroblasts isolated from transgenic mice bearing a reporter β-galactosidase (βGal) transgene under the regulation of the αSMA promoter/enhancer (30). Cells from these mice display βGal positivity when αSMA expression is activated (30).

[3] = test system: 4 mm circular skin wounds; test: Wound healing assay in vivo, 4 mm skin biopsy wounds, wound area; details: mice; for wound healing compared to controls: 100 nM applied twice daily to the wound
Experimental: (§4) Wild-type mice of mixed C57BL6/FVB genetic background, originally obtained by Jackson Laboratories were maintained in our laboratory. Care of animals was in accord with University of Athens Institutional guidelines. The reporter αSMA-βGal mice have been described elsewhere (32). Wound healing assay in vivo was performed after administration of anesthesia (100 mg/kg ketamine, 10 mg/kg xylazine). Mice were shaved in the back, wiped with ethanol and wounds were cut using a biopsy punch (4 mm). The skin was grabbed at dorsal midline and placed over a cardboard backing on one side of the skin fold. The biopsy punch was pressed until both layers of the skin were punched and the cardboard was reached. Four wounds were performed per mouse, two on each side of the dorsal midline, at equal distance, so that the tension of the skin would be equal all over the mouse back and would not influence the contraction of the wounds. The experimental protocol was reviewed and approved by the University of Athens Animal Experimentation Committee. GHRH and JI-38 (100 nM) were applied twice daily in a volume of approximately 50 μl. At least 10 wounds for each of the control (vehicle, PBS), GHRH or JI-38 were observed. In order to avoid study variation due to the wound healing variability between different experimental animals, each mouse was its own control. For wound area measurements digital pictures of wounds were analyzed by the ImageJ (N1H) software. Wound size was monitored over time relative to a 4 mm diameter circular paper cutout placed next to the wound as previously described (38). For histology, 4-6 wounds per time point per group were analyzed. Similar results were obtained among different mice and histological sections for each group and representative are shown.
In order to evaluate the effect of GHRH on wound healing in vivo, wild type mice were subjected to 4 mm skin biopsies and the healing of the inflicted wounds in the presence or absence of GHRH and JI-38 at 100 nM was observed daily. In order to avoid variation in the wound healing process between different experimental animals, a control wound was always included in each mouse, thus permitting paired analysis.

MEFs [4] = test: Scratch wound migration assay of MEFs; format: cell-based, mouse; details: 100 nM, 18 h
Experimental: as §1, §2

[5] = test system: 4 mm circular skin wounds; test: Histology, fibroblast counting and Van Gieson staining of 4 mm skin wounds; format: in vivo, mice; details: for content of fibroblasts in wounds (histology) compared to controls: day 5, 100 nM twice daily; for increase of fibroblast density in the wound area: vs controls, direct counting, 100 nM twice daily, p<0.05, FIG. 6
Experimental: FIG. 6. Quantification of fibroblast content in 4 mm circular skin wounds in mice exposed to GHRH or GHRH agonist JI-38 twice per day at 100 nM on day 5 and 8. Fibroblast number was assessed by direct counting of fibroblast in at least 3 random optic fields in the wound areas under light microscope and expressed relative to the fibroblast content in the controls on day 5. Data are expressed as mean±SEM. *, p<0.05.
as §3, §4
Tissue sections from mice wounds were de-paraffinized and rehydrated in distilled H2O. These sections were then stained in orcein (Sigma) 1% w/v in 96% ethanol for 30 min at room temperature and washed in distilled H2O. […]

MEFs [6] = test: Cell proliferation by Trypan blue exclusion assay in MEFs; format: cell-based, mouse
Experimental: as §1, §2

[7] = test system: focal adhesion kinase (FAK); test: Immunoblot analysis of FAK expression in MEFs; format: cell-based, mouse; details: 100 nM, 24 h, Western blot
Experimental: as §3
(§5) αSMA is an actin isoform that confers tensional and contractile activity (25,26). […]

SV1 = test: Immunoblot analysis of SV1 expression in MEFs; format: cell-based, mouse; details: 500 nM, 24 h
Experimental: as §3, with “After three more washes, cells were stained with 1 mg/ml of 5-bromo-4-chloro-3indonyl β-D-galactopyranoside, 5 mM potassium ferrocyanide, 5 mM potassium ferricyanide and 2 mM MgCl2) overnight at 37° C.” left out
It was evaluated whether MEFs express the receptor for GHRH SV1. Primary MEFs were exposed to GHRH and agonistic GHRH analog JI-38 (24, 26) at 100 nM and 500 nM for 24 h and SV1 expression was then assessed by immunoblot analysis.

subcutaneous peptidases = details: cited from earlier work
[8] = test system: αSMA promoter-βGal reporter transgene; test: βGal staining of lung fibroblasts from αSMA promoter-βGal reporter transgenic mice; format: cell-based; details: 100 nM and 500 nM, 24 h
Experimental: as §3, §5

pituitary GHRH receptor = details: subcutaneous administration; cited from earlier work

Row | Substance | migration of MEFs in 8 μm-pore transwell system (figure legend) (MEFs [1]; 100 nM) | increase of migration through 8 μm-pore transwells compared to controls (MEFs [1]; 100 nM) | stimulation of cell migration through transwells compared to controls (MEFs [1]; 500 nM) | SMA expression ([2]; 100 nM, 24 h, immunoblot) | SMA expression ([2]; 500 nM, compared with 100 nM) | wound healing compared to controls [3] | day on which acceleration of wound healing was first evidenced ([3]; 100 nM twice daily) | time to nearly complete healing ([3]; 100 nM twice daily) | migration of MEFs in scratch assay compared to controls (MEFs [4]) | content of fibroblasts in wounds (histology) compared to controls [5] | collagen fibers in the lamina propria, Van Gieson staining ([5]; day 8, 100 nM twice daily) | histology of epidermis, dermis and stroma ([5]; day 8, 100 nM twice daily) | increase of fibroblast density in the wound area [5] | proliferation of MEFs (MEFs [6]; 100 nM) | proliferation of MEFs (MEFs [6]; 500 nM) | FAK expression [7] | also measured
1 | hGHRH(1-29)NH2 | significantly increased | about 2.5 fold | about 2 fold | stimulated; also recorded: induced | less pronounced | considerable acceleration | 3 days | about 10 days post-incision | considerably increased; also recorded: increased migration | increased content of fibroblasts; also recorded: considerable increase | nearly normally arranged collagen fibers | almost normal with a diffuse mild inflammatory infiltration | about 80% | stimulated proliferation | no considerable effect | induced | potency histologically and macroscopically at equimolar concentrations ([3]; 100 nM twice daily): more potent than 31-38; reformation of the covering epithelium ([5]; day 8, 100 nM twice daily): almost complete; levels of SV1 expression (SV1): upregulated
2 | [Dat^1, Gln^8, Orn^12,21, Abu^15, Nle^27, Asp^28, Agm^29]hGH-RH(1-29)NH2 [JI-38] | significantly increased | ~3 fold | about 2 fold | stimulated; also recorded: induced | less pronounced | considerable acceleration | 3 days | about 10 days post-incision | considerably increased | to a lesser extent; also recorded: considerable increase | could not be seen | dense and rich in fibroblasts | ~40% | no considerable effect | no considerable effect | induced | stability against subcutaneous peptidases (subcutaneous peptidases): resistance to degradation by subcutaneous peptidases; potency in transwell-based migration assay relative to GHRH (MEFs [1]): more potent than GHRH; migration of MEFs in 8 μm-pore transwell system (figure legend) (MEFs [1]; 500 nM): significantly increased; migration of MEFs in scratch assay compared to controls (MEFs [4]; listed as 51-38): increased migration; increase in fraction of βGal-positive (αSMA-lacZ positive) cells compared to untreated controls ([8]; listed as 31-38): about 3 fold; increase in fraction of βGal-positive (αSMA-lacZ positive) cells compared to untreated controls ([8]; listed as 51-38): ~3 fold; potency relative to GHRH in in vivo growth hormone release assay (pituitary GHRH receptor): much more potent than GHRH
